Test results reported in PubChem BioAssay (NCI).
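Following 48 hours of exposure in 96-well plates, responses at five concentrations were used to interpolate endpoints linearly. TGI is the concentration that stops growth completely.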

Key:
Assay in all cases: inhibition of tumour cell growth, NCI panel, 48 h
UO-31 renal = system: UO-31 renal
SK-MEL-5 melanoma = system: SK-MEL-5 melanoma
HOP-62 NSCLC = system: HOP-62 NSCLC
TK-10 renal = system: TK-10 renal
SW-620 colon = system: SW-620 colon
T-47D breast = system: T-47D breast
IGROV1 ovarian = system: IGROV1 ovarian
SN12C renal = system: SN12C renal
RPMI-8226 leukemia = system: RPMI-8226 leukemia
KM12 colon = system: KM12 colon
MDA-MB-435 = system: MDA-MB-435
LOX IMVI melanoma = system: LOX IMVI melanoma
HCC-2998 colon = system: HCC-2998 colon
A498 renal = system: A498 renal
SF-295 CNS = system: SF-295 CNS
786-0 renal = system: 786-0 renal
SNB-19 CNS = system: SNB-19 CNS
NCI-H23 lung = system: NCI-H23 lung
OVCAR-4 ovarian = system: OVCAR-4 ovarian
HT29 colon = system: HT29 colon
OVCAR-8 ovarian = system: OVCAR-8 ovarian
SK-MEL-28 melanoma = system: SK-MEL-28 melanoma
UACC-62 melanoma = system: UACC-62 melanoma
SNB-75 CNS = system: SNB-75 CNS
SR leukemia = system: SR leukemia
HCT-15 colon = system: HCT-15 colon
K-562 leukemia = system: K-562 leukemia
RXF 393 renal = system: RXF 393 renal
HOP-92 NSCLC = system: HOP-92 NSCLC
MOLT-4 leukemia = system: MOLT-4 leukemia
SK-OV-3 ovarian = system: SK-OV-3 ovarian
NCI/ADR-RES ovarian = system: NCI/ADR-RES ovarian
UACC-257 melanoma = system: UACC-257 melanoma
MCF7 breast = system: MCF7 breast
NCI-H522 lung = system: NCI-H522 lung
SF-268 CNS = system: SF-268 CNS
OVCAR-3 ovarian = system: OVCAR-3 ovarian
SK-MEL-2 melanoma = system: SK-MEL-2 melanoma
M14 melanoma = system: M14 melanoma
BT-549 breast = system: BT-549 breast
COLO 205 colon = system: COLO 205 colon
MDA-MB-231 breast = system: MDA-MB-231 breast
PC-3 prostate = system: PC-3 prostate
U251 CNS = system: U251 CNS
MALME-3M melanoma = system: MALME-3M melanoma
SF-539 CNS = system: SF-539 CNS
DU-145 prostate = system: DU-145 prostate
A549 NSCLC = system: A549 NSCLC
HL-60(TB) leukemia = system: HL-60(TB) leukemia
ACHN renal = system: ACHN renal
HCT-116 colon = system: HCT-116 colon
NCI-H226 lung = system: NCI-H226 lung
CCRF-CEM leukemia = system: CCRF-CEM leukemia
HS 578T breast = system: HS 578T breast
MDA-N = system: MDA-N
OVCAR-5 ovarian = system: OVCAR-5 ovarian
EKVX NSCLC = system: EKVX NSCLC
CAKI-1 renal = system: CAKI-1 renal
NCI-H460 lung = system: NCI-H460 lung

Cc1ccc(O)c(C(c2ccc(C(c3cc(C)ccc3O)c3cc(C)ccc3O)cc2)c2cc(C)ccc2O)c1
TGI (UO-31 renal): 3.25 µM | TGI (SK-MEL-5 melanoma): 3.22 µM | TGI (HOP-62 NSCLC): 4.36 µM | TGI (TK-10 renal): 2.93 µM | TGI (SW-620 colon): 3.48 µM | TGI (T-47D breast): 3.23 µM | TGI (IGROV1 ovarian): 3.16 µM | TGI (SN12C renal): 3.1 µM | TGI (RPMI-8226 leukemia): 3.4 µM | TGI (KM12 colon): 3.09 µM | TGI (MDA-MB-435): 3.29 µM | TGI (LOX IMVI melanoma): 3.38 µM | TGI (HCC-2998 colon): 3.31 µM | TGI (A498 renal): 2.91 µM | TGI (SF-295 CNS): 4.01 µM | TGI (786-0 renal): 3.11 µM | TGI (SNB-19 CNS): 2.97 µM | TGI (NCI-H23 lung): 3.25 µM | TGI (OVCAR-4 ovarian): 3.22 µM | TGI (HT29 colon): 3.57 µM | TGI (OVCAR-8 ovarian): 3.41 µM | TGI (SK-MEL-28 melanoma): 3.5 µM | TGI (UACC-62 melanoma): 3.15 µM | TGI (SNB-75 CNS): 3.49 µM | TGI (SR leukemia): 6.33 µM | TGI (HCT-15 colon): 3.2 µM | TGI (K-562 leukemia): 3.56 µM | TGI (RXF 393 renal): 3.4 µM | TGI (HOP-92 NSCLC): 3.81 µM | TGI (MOLT-4 leukemia): > 100 µM | TGI (SK-OV-3 ovarian): 3.27 µM | TGI (NCI/ADR-RES ovarian): 3.85 µM | TGI (UACC-257 melanoma): 3.33 µM | TGI (MCF7 breast): 4.36 µM | TGI (NCI-H522 lung): 3.62 µM | TGI (SF-268 CNS): 3.31 µM | TGI (OVCAR-3 ovarian): 3.86 µM | TGI (SK-MEL-2 melanoma): 3.89 µM | TGI (M14 melanoma): 3.36 µM | TGI (BT-549 breast): 3.49 µM | TGI (COLO 205 colon): 2.75 µM | TGI (MDA-MB-231 breast): 2.67 µM | TGI (PC-3 prostate): 3 µM | TGI (U251 CNS): 3.82 µM | TGI (MALME-3M melanoma): 3.45 µM | TGI (SF-539 CNS): 3.29 µM | TGI (DU-145 prostate): 3.21 µM | TGI (A549 NSCLC): 3.23 µM | TGI (HL-60(TB) leukemia): 5.47 µM | TGI (ACHN renal): 3.17 µM | TGI (HCT-116 colon): 3.04 µM | TGI (NCI-H226 lung): 3.61 µM | TGI (CCRF-CEM leukemia): 5.63 µM | TGI (HS 578T breast): 4.7 µM | TGI (MDA-N): 2.87 µM | TGI (OVCAR-5 ovarian): 3.28 µM | TGI (EKVX NSCLC): 3.57 µM | TGI (CAKI-1 renal): 2.92 µM

COc1cc([C@@H]2c3cc4c(cc3[C@@H](Nc3ccc(N=Cc5ccc(C(=O)O[C@@H](C(=O)O[C@H]6C[C@@]7(O)[C@@H](OC(=O)c8ccccc8)[C@@H]8[C@]9(OC(C)=O)CO[C@@H]9C[C@H](O)[C@@]8(C)C(=O)[C@H](OC(C)=O)C(=C6C)C7(C)C)[C@@H](NC(=O)c6ccccc6)c6ccccc6)cc5)cc3)[C@H]3COC(=O)[C@H]23)OCO4)cc(OC)c1O
TGI (NCI-H460 lung): 15.9 µM | TGI (SK-MEL-5 melanoma): > 42.9 µM | TGI (HOP-62 NSCLC): > 40.2 µM | TGI (TK-10 renal): > 50 µM | TGI (SW-620 colon): > 50 µM | TGI (T-47D breast): > 50 µM | TGI (IGROV1 ovarian): > 50 µM | TGI (SN12C renal): 17.2 µM | TGI (RPMI-8226 leukemia): 28.2 µM | TGI (KM12 colon): > 50 µM | TGI (MDA-MB-435): > 50 µM | TGI (LOX IMVI melanoma): > 50 µM | TGI (HCC-2998 colon): > 50 µM | TGI (A498 renal): 4.48 µM | TGI (SF-295 CNS): > 27.7 µM | TGI (786-0 renal): 9.53 µM | TGI (SNB-19 CNS): > 50 µM | TGI (NCI-H23 lung): > 38.9 µM | TGI (OVCAR-4 ovarian): > 50 µM | TGI (HT29 colon): > 50 µM | TGI (OVCAR-8 ovarian): > 50 µM | TGI (SK-MEL-28 melanoma): > 50 µM | TGI (UACC-62 melanoma): > 50 µM | TGI (SNB-75 CNS): 37.2 µM | TGI (SR leukemia): 0.35 µM | TGI (HCT-15 colon): > 50 µM | TGI (K-562 leukemia): > 22.5 µM | TGI (RXF 393 renal): > 50 µM | TGI (HOP-92 NSCLC): > 50 µM | TGI (MOLT-4 leukemia): 10.5 µM | TGI (SK-OV-3 ovarian): > 35.8 µM | TGI (NCI/ADR-RES ovarian): > 50 µM | TGI (UACC-257 melanoma): > 50 µM | TGI (MCF7 breast): > 50 µM | TGI (NCI-H522 lung): > 50 µM | TGI (SF-268 CNS): > 45.6 µM | TGI (OVCAR-3 ovarian): > 50 µM | TGI (SK-MEL-2 melanoma): > 50 µM | TGI (M14 melanoma): > 50 µM | TGI (BT-549 breast): > 50 µM | TGI (COLO 205 colon): > 50 µM | TGI (MDA-MB-231 breast): > 50 µM | TGI (PC-3 prostate): > 50 µM | TGI (U251 CNS): 35.4 µM | TGI (MALME-3M melanoma): > 50 µM | TGI (SF-539 CNS): > 47.3 µM | TGI (DU-145 prostate): 17.2 µM | TGI (A549 NSCLC): > 50 µM | TGI (HL-60(TB) leukemia): 9.73 µM | TGI (ACHN renal): 10.5 µM | TGI (HCT-116 colon): > 50 µM | TGI (NCI-H226 lung): 29.3 µM | TGI (CCRF-CEM leukemia): 11 µM | TGI (HS 578T breast): > 50 µM | TGI (MDA-N): > 50 µM | TGI (OVCAR-5 ovarian): > 39.1 µM | TGI (EKVX NSCLC): > 50 µM | TGI (CAKI-1 renal): 14.4 µM
